Measured values published in patent US12139461B1, “Piperidine compounds as PDE5 inhibitors” (KING SAUD UNIVERSITY, priority 2024, dated 2024).

Assays:
[1] = system: sexually experienced male rats; test: Penile erection index (noncontact erection test); assay type: in vivo, rat; settings: for erectile response: oral treatment
Experimental: The penile erection index is an established means of determining the erection promoting properties of a substance. Determination of penile erection in a noncontact position was calculated as reported previously (Haripriya V M. et al., Andrologia 51 (2019) e13180; Sharma V. et al., J Ethnopharmacol 143 (2012) 201-206, the contents of each of which are hereby incorporated by reference in their entirety). The sexually experienced male rats of all groups were given the treatment 30 minutes before experimentation. The number of animals for each dose was ten rats in each experiment. […] The results shown are the average of three separate experiments. Control animals were given 0.5% CMC as a vehicle.
The rats of each group were placed in the observation cages (five at a time) divided into half by two sheets of metal mesh, preventing contact but allowing auditory, visual and olfactory stimuli. After a 5-min adaptation period, the test was started by placing an estrus female on the other side of the cage. Penile erection was recorded when the rats bent down to lick their erect penis. Homosexual mounting was also counted when a male rat mounted another male rat performing pelvic thrusts with or without a penile erection. […] The effective dose ED50 (the dose required to give 50% responding rats) for examined compounds was calculated using linear regression analysis by GraphPad software with the proportion of responding rats as the input data and expressed as μmol/kg.

[2] = molecular target: Phosphodiesterase type 5 (PDE5) (Homo sapiens (Human), UniProt O76074); test: In vitro phosphodiesterase type 5 (PDE5) inhibition assay; assay type: biochemical; settings: purified PDE5, IMAP FP assay
male rats = test: Copulatory behavior testing; assay type: in vivo, rat; settings: 5 mg/kg oral; for copulatory efficiency (CE): CE=(IF/MF)x100; for mean intromission interval (MII): MII=EL/IF
Experimental: Sexually mature Wistar albino male and female rats weighing 150-180 g (10-14 weeks old) were used in our study. Males were trained for sexual behavior with estrus females, that is, two hours a day for one week, before the investigations. Females were brought into the estrous phase artificially by sequential injection of estradiol benzoate (Sigma) (25 μg/animal) and progesterone (Sigma) (250 μg/animal) subcutaneously, 48 and 4 hours before pairing, respectively. Only those sexually active animals were used subsequently in the study. Sexually active rats were isolated and housed in separate cages at room temperature (24±2° C.) on a reversed day/night cycle with a relative humidity of 50-55% during the experimental period. All sexual studies were performed in a calm laboratory condition under subdued light. For the toxicity study, adult Wistar albino male rats were used separately. Rats were obtained from the Experimental Animal Care Center, College of Pharmacy, King Saud University. Animals were fed with a standard pellet diet and provided water ad libitum. All experiments were performed per the protocols and recommendations of the NIH Guide for the Care and Use of Laboratory Animals and the legal requirements of King Saud University for investigations on humans and animals.
Based on a preliminary study to select the appropriate dose for the promising synthesized compounds, the compounds were administered separately to sexually experienced male rats by oral gavage at 5 mg/kg in a 0.5% sodium carboxymethyl cellulose (CMC) vehicle. […] All solutions were freshly prepared at a concentration that allowed the administration of 1 ml/kg.
After drug treatment, rats were housed separately in transparent cages for acclimation. Thirty minutes after drug treatment, a sexually receptive female rat with estrous phase was introduced in each cage for 30 min and the following parameters of the copulatory behavior were recorded: namely mount latency (ML; time from introduction of the female until the first mount with or without penile insertion, it measures the degree of arousal or sexual interest or libido of the male), mount frequency (MF; the number of mounts until ejaculation, it is a measure of the degree of the male's sexual interest or libido), intromission latency (IL; time from introduction of the female until the first intromission, it measures the degree of sexual excitement and erection), intromission frequency (IF; number of vaginal penetrations until ejaculation, it measures the degree of erection), ejaculation latency (EL; time from the first intromission until ejaculation, it determines the excellent organization of copulation in rats) and post-ejaculatory interval (PEI; time interval between an ejaculation and the following first mount, it measures the refractory period that comes after ejaculation). Latency values represent the number of seconds that elapses from the introduction of the female into the copulatory arena until the male executes the first mount, intromission or ejaculation. Frequency values represent the number of ejaculations, mounts or intromission recorded during the copulatory test.
Depending on these parameters, the following can be calculated: Copulatory efficiency (CE)=(IF/MF)×100 and mean intromission interval (MII)=EL/IF as previously described (Aydogan F. et al., J Ethnopharmacol 257 (2020) 112868; Besong E B. et al., Biochem Res Int 2018 (2018) 2869727, the contents of each of which are hereby incorporated by reference in their entirety). Experiments were repeated blindly three times using new fresh (unused) animals in each experiment.

rats = test: Evaluation of LD50 (acute oral toxicity); assay type: in vivo; settings: single oral dose 500-2000 mg/kg
Description: (§1) Healthy rats were divided into groups of 10 rats and maintained as described above. Rats had free access to water and food, except for a short fasting period before the treatment with the single oral dose of compounds C9, C14 and C21 or the solvent. The compounds were formulated with 1% CMC. An approximate LD50 was initially determined in a pilot study by a so called ‘staircase method’ using a small number of animals (2 each dose) and increasing doses of tested compounds. Three doses were then chosen for the determination of oral median lethal dose (LDso) (500, 1000 and 2000 mg/kg) and given to three groups of rats (10 in each group). Another group of rats (6 rats) was given equal amounts of 1% CMC orally and served as a control group. […] After 24 hours, the number of dead rats was counted in each group. The percentage of animals that had died at each dose level was transformed to probits, and then LD50 was determined by the method of Miller and Tainter, 1944 as described previously (Randhawa M A, J Ayub Med Coll Abbottabad 21 (2009) 184-185, the contents of which are hereby incorporated by reference in their entirety).

[3] = Evaluation of LD50 (acute oral toxicity); assay type: in vivo; settings: rat, in vivo, po; single intragastric administration, rats, 24 h
Description: as §1

male diabetic rats = test: Copulatory behavior testing in diabetic animals; assay type: in vivo, rat; settings: 5 mg/kg/day for 14 days; for ejaculation latency (EL) / intromission frequency (IF) / intromission latency (IL) / mount frequency (MF) / mount latency (ML) / post-ejaculatory interval (PEI) / copulatory efficiency (CE) / mean intromission interval (MII): male diabetic rats; for copulatory efficiency (CE): CE=(IF/MF)x100; for mean intromission interval (MII): MII=EL/IF; for sexual function in diabetic rats: versus diabetic control rats
Experimental: Nearly 90% of the population suffering from diabetic conditions report disturbances in sexual function, encompassing a decrease in libido, impotence and infertility (Kamenov Z A, Exp Clin Endocrinol Diabetes 123 (2015) 141-158). Diabetic was induced in experimental animals by intraperitoneal administration of streptozotocin in separate groups of male animals. Diabetes was induced by a single intraperitoneal injection of freshly prepared 65 mg/kg streptozotocin in […] citrate buffer, pH 4.4 (Mendez J D and Ramos H G, Arch Med Res 25 (1994) 367-375). All rats receiving streptozotocin were given a 10% sucrose solution in the first 48 h after injection to prevent hypoglycemia. After 72 h of streptozotocin administration, rats with fasting serum glucose more than 350 mg/dL were considered as diabetic. Glibenclamide was given by oral gavage once a day (10 mg/kg/day) to diabetic animals to avoid mortality throughout the investigation (Abdel-Aziz A A-M. et al., Eur J Med Chem 46 (2011) 4324-4329). The male rats were trained for sexual behavior study before induction of diabetes and treatment, as mentioned above. Diabetic rats were given a daily oral dose of 5 mg/kg of compounds C9, C14 and C21 for 14 consecutive days. The sexual behavior of the animals was assessed on day 15 of the treatment. The copulatory behavior testing was performed, and CE and MII were calculated.

SMILES | erectile response ([1]; 1.25-5 mg/kg) | penile erection index (PEI) ([1]; oral, dose 1.25 mg/kg) | penile erection index (PEI) ([1]; oral, dose 2.5 mg/kg) | penile erection index (PEI) ([1]; oral, dose 5 mg/kg) | IC50 [2] [nM] | efficacy in improving copulatory behavior (male rats) | ejaculation latency (EL) (male rats) [s] | intromission frequency (IF) (male rats) | intromission latency (IL) (male rats) [s] | mount frequency (MF) (male rats) | mount latency (ML) (male rats) [s] | post-ejaculatory interval (PEI) (male rats) [s] | copulatory efficiency (CE) (male rats) [%] | mean intromission interval (MII) (male rats) | toxic symptoms after oral dosing (rats) | LD50 at 24 h [3] [mg/kg] | ejaculation latency (EL) (male diabetic rats) [s] | intromission frequency (IF) (male diabetic rats) | intromission latency (IL) (male diabetic rats) [s] | mount frequency (MF) (male diabetic rats) | further results
O=S(=O)(c1ccc(Cl)cc1Cl)N1CCC(c2ccccc2)CC1 [Compound C9, 1-((2,4-Dichlorophenyl)sulfonyl)-4-phenylpiperidine] | statistically elevated | 23.3 ± 3.3 | 53.3 ± 8.8 | 60.0 ± 5.7 | 47.9 | more pronounced | 368.3 | 12.8 | 177.6 | 23.6 | 74.6 | 355.6 | 55.2 | 29.0 | gradually became drowsy and less responsive | > 2000 | 223.3 | 4.3 | 305.1 | 10.6 | mount latency (ML) (male diabetic rats): 137.1 s; post-ejaculatory interval (PEI) (male diabetic rats): 552.8 s; copulatory efficiency (CE) (male diabetic rats): 40.9%; mean intromission interval (MII) (male diabetic rats): 53.1; sexual function in diabetic rats (male diabetic rats): restored
NS(=O)(=O)c1ccc(CNC(=O)CN2CCC(Cc3ccccc3)CC2)cc1 [Compound C14, 2-(4-Benzylpiperidin-1-yl)-N-(4-sulfamoylbenzyl)acetamide] | statistically elevated | 26.6 ± 3.4 | 46.6 ± 3.3 | 90.0 ± 11.5 | 39.4 | more pronounced | 425.1 | 20.6 | 122.6 | 27.3 | 54.6 | 277.1 | 76.2 | 20.8 | gradually became drowsy and less responsive | > 2000 | 208.3 | 3.8 | 327.6 | 10.6 | ED50 ([1]; Rattus norvegicus, oral, linear regression of proportion of responding rats, read-out: effective dose ED50 (dose required to give 50% responding rats)): 10.1 µmol/kg; animal response (proportion of responding rats) with dose ([1]; oral, 1.25-5 mg/kg): higher response; mount latency (ML) (male diabetic rats): 158.0 s; post-ejaculatory interval (PEI) (male diabetic rats): 505.6 s; copulatory efficiency (CE) (male diabetic rats): 35.6%; mean intromission interval (MII) (male diabetic rats): 55.7; sexual function in diabetic rats (male diabetic rats): restored
